Laboratory results as given in ChEMBL document CHEMBL5046244, “Targeted Covalent Inhibition of Small CTD Phosphatase 1 to Promote the Degradation of the REST Transcription Factor in Human Cells” (J Med Chem, 2022).
Calls of active or inactive are those of the source. The rule behind the calls is not given here.

Tests used:
HEK293 [1] = test: Downregulation of REST protein expression in HEK293 cells at 10 uM incubated for 48 to 72 hrs by immunoblot analysis; format: functional, cell-based; details: Homo sapiens, time lower […], time upper 72.0 hrs
[2] = Downregulation of REST protein expression in HEK293 cells at 10 uM incubated for 6 hrs by immunoblot analysis relative to control; format: functional, Homo sapiens
[3] = Downregulation of REST protein expression in HEK293 cells at 10 uM incubated for 12 hrs by immunoblot analysis relative to control; format: functional, Homo sapiens
[4] = target: T1, Tyrosine-protein phosphatase non-receptor type 2 (Homo sapiens) (UniProt P17706); test: Inhibition of TCPTP (unknown origin) at 25 to 30 uM; details: dose 25-30 µM
T1 sequence (whole entry): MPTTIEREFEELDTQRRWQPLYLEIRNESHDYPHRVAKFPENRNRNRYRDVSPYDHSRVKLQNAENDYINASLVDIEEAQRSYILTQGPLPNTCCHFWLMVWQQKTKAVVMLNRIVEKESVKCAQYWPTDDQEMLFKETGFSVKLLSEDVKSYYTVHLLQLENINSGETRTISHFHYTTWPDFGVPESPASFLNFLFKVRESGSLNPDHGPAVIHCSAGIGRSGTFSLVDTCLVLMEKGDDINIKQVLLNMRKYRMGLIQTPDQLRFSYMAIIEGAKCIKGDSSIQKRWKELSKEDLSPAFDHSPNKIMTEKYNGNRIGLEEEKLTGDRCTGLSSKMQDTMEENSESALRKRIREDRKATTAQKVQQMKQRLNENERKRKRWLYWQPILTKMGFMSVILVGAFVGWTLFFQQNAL

Homo sapiens [5] = species on record: Homo sapiens; test: Covalent inhibition of human SCP1 C148A mutant using pNPP as substrate preincubated for 0.5 to 8 hrs followed by substrate addition by absorbance based analysis; details: time 0.5-8 hrs
Homo sapiens [6] = species on record: Homo sapiens; test: Covalent inhibition of human SCP1 C92S mutant using pNPP as substrate preincubated for 0.5 to 8 hrs followed by substrate addition by absorbance based analysis; details: time 0.5-8 hrs
Homo sapiens [7] = species on record: Homo sapiens; test: Covalent inhibition of human SCP1 C181A mutant using pNPP as substrate preincubated for 0.5 to 8 hrs followed by substrate addition by absorbance based analysis; details: time 0.5-8 hrs
Homo sapiens [8] = species on record: Homo sapiens; test: Covalent binding affinity to human SCP1 C181A mutant assessed as covalent adduct formation incubated for overnight by MALDI-TOF analysis
Homo sapiens [9] = species on record: Homo sapiens; test: Covalent binding affinity to human SCP1 C92 mutant assessed as covalent adduct formation incubated for overnight by MALDI-TOF analysis
[10] = target: T2, Tyrosine-protein phosphatase non-receptor type 1 (Homo sapiens) (UniProt P18031); test: Inhibition of human PTP1B (1 to 321 residues) expressed in Escherichia coli BL21 (DE3) using pNPP as substrate at up to 200 uM preincubated for 4 hrs followed by substrate addition by absorption based analysis; details: dose microM <=200, time 4.0 hrs
T2 sequence (whole entry): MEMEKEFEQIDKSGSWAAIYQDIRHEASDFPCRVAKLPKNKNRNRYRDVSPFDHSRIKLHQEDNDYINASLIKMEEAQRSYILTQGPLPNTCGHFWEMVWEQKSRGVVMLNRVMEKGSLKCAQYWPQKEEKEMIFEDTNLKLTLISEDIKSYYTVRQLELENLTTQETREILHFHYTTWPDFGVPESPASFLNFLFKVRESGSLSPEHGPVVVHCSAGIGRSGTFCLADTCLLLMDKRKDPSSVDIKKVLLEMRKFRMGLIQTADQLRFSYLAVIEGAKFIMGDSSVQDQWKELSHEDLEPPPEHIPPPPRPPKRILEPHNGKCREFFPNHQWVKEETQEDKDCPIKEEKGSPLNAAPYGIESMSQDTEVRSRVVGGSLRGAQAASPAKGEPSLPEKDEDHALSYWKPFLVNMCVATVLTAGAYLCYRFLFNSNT

[11] = target: T3, Receptor-type tyrosine-protein phosphatase C (Homo sapiens) (UniProt P08575); test: Inhibition of CD45 (unknown origin) at 25 to 30 uM; details: dose 25-30 µM
T3 sequence (whole entry): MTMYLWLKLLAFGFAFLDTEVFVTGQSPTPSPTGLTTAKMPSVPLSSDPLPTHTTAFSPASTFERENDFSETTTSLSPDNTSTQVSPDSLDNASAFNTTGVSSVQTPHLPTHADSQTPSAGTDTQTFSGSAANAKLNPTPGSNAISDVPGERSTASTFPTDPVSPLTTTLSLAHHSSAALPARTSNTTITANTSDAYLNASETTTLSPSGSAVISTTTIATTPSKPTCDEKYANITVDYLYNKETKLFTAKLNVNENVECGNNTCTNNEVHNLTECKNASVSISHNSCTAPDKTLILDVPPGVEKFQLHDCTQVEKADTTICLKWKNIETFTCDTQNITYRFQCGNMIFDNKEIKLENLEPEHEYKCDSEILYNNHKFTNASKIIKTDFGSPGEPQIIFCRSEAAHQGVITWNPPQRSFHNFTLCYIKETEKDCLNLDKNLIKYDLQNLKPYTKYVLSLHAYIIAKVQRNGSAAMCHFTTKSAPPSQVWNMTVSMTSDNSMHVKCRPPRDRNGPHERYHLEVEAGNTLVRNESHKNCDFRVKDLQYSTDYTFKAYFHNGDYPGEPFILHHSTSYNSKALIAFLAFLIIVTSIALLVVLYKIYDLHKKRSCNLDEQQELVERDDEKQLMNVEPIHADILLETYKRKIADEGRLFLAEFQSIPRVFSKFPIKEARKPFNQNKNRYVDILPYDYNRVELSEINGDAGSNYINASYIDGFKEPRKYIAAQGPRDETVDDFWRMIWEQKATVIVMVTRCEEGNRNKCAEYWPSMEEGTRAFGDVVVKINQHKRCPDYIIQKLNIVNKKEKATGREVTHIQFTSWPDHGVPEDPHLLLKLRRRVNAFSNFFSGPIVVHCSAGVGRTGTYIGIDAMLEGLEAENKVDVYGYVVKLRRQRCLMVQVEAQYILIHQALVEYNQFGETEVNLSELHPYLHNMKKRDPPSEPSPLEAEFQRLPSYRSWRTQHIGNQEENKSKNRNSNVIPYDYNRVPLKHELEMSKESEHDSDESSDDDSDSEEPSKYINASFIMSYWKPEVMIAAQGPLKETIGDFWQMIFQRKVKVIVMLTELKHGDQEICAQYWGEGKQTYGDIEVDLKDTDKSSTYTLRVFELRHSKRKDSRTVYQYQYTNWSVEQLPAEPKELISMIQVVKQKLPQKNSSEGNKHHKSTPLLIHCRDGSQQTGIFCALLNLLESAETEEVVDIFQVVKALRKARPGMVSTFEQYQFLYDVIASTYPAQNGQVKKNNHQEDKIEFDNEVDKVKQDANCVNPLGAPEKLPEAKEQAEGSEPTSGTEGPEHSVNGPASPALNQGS

[12] = target: Dual specificity protein phosphatase 3 (Homo sapiens) (UniProt P51452); test: Inhibition of VHR (unknown origin) at 25 to 30 uM; details: dose 25-30 µM
Sequence of Dual specificity protein phosphatase 3 (Homo sapiens) (P51452 whole entry, looked up): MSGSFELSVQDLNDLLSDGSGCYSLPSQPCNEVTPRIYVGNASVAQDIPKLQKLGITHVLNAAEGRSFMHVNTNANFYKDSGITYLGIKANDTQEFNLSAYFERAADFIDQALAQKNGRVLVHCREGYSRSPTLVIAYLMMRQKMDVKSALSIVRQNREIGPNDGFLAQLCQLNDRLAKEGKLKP

[13] = target: T4, Tyrosine-protein phosphatase non-receptor type 22 (Homo sapiens) (UniProt Q9Y2R2); test: Inhibition of LYP (unknown origin) at 25 to 30 uM; details: dose 25-30 µM
T4 sequence (whole entry): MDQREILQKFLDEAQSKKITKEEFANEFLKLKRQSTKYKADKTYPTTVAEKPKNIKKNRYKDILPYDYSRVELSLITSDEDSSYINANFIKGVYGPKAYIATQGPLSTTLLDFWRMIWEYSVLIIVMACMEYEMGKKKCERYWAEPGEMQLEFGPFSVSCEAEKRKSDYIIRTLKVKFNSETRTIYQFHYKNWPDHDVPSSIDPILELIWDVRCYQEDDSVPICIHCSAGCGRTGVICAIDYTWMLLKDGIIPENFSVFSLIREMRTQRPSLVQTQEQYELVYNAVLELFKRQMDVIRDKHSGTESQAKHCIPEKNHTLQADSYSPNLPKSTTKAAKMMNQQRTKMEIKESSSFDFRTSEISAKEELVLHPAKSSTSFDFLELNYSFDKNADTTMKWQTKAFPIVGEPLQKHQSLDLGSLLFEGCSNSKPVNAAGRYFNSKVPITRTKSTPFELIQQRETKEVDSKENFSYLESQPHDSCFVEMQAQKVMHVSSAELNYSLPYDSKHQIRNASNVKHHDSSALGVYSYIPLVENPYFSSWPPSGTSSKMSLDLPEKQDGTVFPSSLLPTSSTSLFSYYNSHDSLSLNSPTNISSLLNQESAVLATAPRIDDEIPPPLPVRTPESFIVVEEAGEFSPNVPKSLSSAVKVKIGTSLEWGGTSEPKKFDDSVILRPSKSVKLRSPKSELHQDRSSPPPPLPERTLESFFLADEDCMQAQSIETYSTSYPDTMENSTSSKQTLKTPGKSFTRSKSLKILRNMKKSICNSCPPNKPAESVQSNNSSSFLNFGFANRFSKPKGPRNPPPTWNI

[14] = test system: Schizosaccharomyces pombe; test: Time dependent inhibition of Schizosaccharomyces pombe wild type FCP1 (148 to 641 residues) using pNPP as substrate measured upto 18 hrs by absorbance based assay; details: time hrs <=18
[15] = test system: Schizosaccharomyces pombe; test: Inhibition of Schizosaccharomyces pombe wild type FCP1 (148 to 641 residues) assessed as reduction in enzymatic activity using pNPP as substrate at 100 uM measured up to 18 hrs by absorbance based assay relative to control; details: time hrs <=18
[16] = Downregulation of REST protein expression in HEK293 cells incubated for 3 days with media replenishment for every 24 hrs by immunoblot analysis; format: functional, cell-based; details: Homo sapiens
[17] = Downregulation of REST protein expression in HEK293 cells at 3 uM incubated for 3 days with media replenishment for every 24 hrs by immunoblot analysis relative to control; format: functional, Homo sapiens; details: time 3 day
[18] = Downregulation of REST protein expression in HEK293 cells at 5 uM incubated for 3 days with media replenishment for every 24 hrs by immunoblot analysis relative to control; format: functional, Homo sapiens; details: time 3 day
[19] = Downregulation of REST protein expression in HEK293 cells at 10 uM incubated for 3 days with media replenishment for every 24 hrs by immunoblot analysis relative to control; format: functional, Homo sapiens; details: time 3 day
[20] = Downregulation of REST protein expression in HEK293 cells transfected with wild type SCP1 at 10 uM incubated for 48 hrs with media replenishment for every 24 hrs by immunoblot analysis relative to control; format: functional, Homo sapiens
HEK293 [21] = test: Recovery of REST protein expression in HEK293 cells at 10 uM incubated for 2 days with media replenishment for every 24 hrs followed by compound washout and measured after 12 hrs by immunoblot analysis relative to control; format: functional, Homo sapiens; details: time 2 day
HEK293 [22] = test: Recovery of REST protein expression in HEK293 cells at 10 uM incubated for 2 days with media replenishment for every 24 hrs followed by compound washout and measured after 24 to 48 hrs by immunoblot analysis relative to control; format: functional, Homo sapiens; details: time 2 day
HEK293 [23] = test: Recovery of REST protein expression in HEK293 cells at 10 uM incubated for 2 days with media replenishment for every 24 hrs followed by compound washout and measured after 3 days by immunoblot analysis relative to control; format: functional, Homo sapiens; details: time 2 day
[24] = Upregulation of DYRK1a mRNA expression in HEK293 cells assessed as fold increase by qRT-PCR analysis; format: functional, Homo sapiens
[25] = Upregulation of ELAVL1 mRNA expression in HEK293 cells assessed as fold increase by qRT-PCR analysis; format: functional, Homo sapiens
[26] = Upregulation of USP37 mRNA expression in HEK293 cells assessed as fold increase by qRT-PCR analysis; format: functional, Homo sapiens
[27] = Upregulation of CELSR3 mRNA expression in HEK293 cells assessed as fold increase by qRT-PCR analysis; format: functional, Homo sapiens
[28] = Upregulation of SCN2 mRNA expression in HEK293 cells assessed as fold increase by qRT-PCR analysis; format: functional, Homo sapiens
[29] = target: T5, Tyrosine-protein phosphatase non-receptor type 11 (Homo sapiens) (UniProt Q06124); test: Inhibition of SHP2 (unknown origin) at 25 to 30 uM; details: dose 25-30 µM
T5 sequence (whole entry): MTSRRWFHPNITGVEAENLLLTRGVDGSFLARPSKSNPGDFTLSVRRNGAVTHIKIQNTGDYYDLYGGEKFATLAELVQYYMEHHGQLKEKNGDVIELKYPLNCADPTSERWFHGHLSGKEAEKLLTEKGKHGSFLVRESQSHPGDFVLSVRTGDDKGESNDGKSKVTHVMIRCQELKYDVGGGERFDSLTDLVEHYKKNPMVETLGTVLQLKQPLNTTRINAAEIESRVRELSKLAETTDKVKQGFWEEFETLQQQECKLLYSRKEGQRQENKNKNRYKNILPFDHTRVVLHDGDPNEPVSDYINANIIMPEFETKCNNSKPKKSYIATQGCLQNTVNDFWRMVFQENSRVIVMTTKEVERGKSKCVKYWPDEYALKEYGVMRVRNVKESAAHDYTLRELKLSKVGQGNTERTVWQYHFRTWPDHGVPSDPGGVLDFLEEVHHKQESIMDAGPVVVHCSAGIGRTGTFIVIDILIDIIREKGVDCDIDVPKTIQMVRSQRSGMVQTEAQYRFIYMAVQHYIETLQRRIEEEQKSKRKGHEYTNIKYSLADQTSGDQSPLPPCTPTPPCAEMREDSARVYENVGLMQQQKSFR

Homo sapiens [30] = species on record: Homo sapiens; test: Inhibition of PP1 (unknown origin) using pNPP as substrate incubated for 4 hrs by absorbance based analysis

- inhibition [4]: inactive
- inhibition (Homo sapiens [5]): Active
- inhibition (Homo sapiens [6]): inactive
- inhibition (Homo sapiens [7]): Active
- Activity (Homo sapiens [8]): inactive
- Activity (Homo sapiens [9]): Active
- inhibition [10]: inactive
- inhibition [11]: inactive
- inhibition [12]: inactive
- inhibition [13]: inactive
- inhibition [14]: inactive
- inhibition [15]: 50%
- EC50 [16]: 1500 nM
- inhibition [29]: inactive
- inhibition (Homo sapiens [30]): inactive
Structure (SMILES): O=C(NCCCNS(=O)(=O)c1ccc(OC(F)(F)F)cc1)C1=Cc2ccccc2S1(=O)=O
- Activity (HEK293 [1]): Active
- Activity [2]: 60%
- Activity [3]: 20%
- Activity [17]: 40%
- Activity [18]: 75%
- Activity [19]: 7%
- Activity [20]: 80%
- Activity (HEK293 [21]): 24%
- Activity (HEK293 [22]): 50%
- Activity (HEK293 [23]): 77%
- fold change (FC) [24]: 2
- fold change (FC) [25]: 2
- fold change (FC) [26]: 2
- fold change (FC) [27]: 2
- fold change (FC) [28]: 2
